Experimental data reported in PubChem BioAssay AID1259407 (Chemical Carcinogenesis Research Information System (CCRIS), 2018).
Calls of active or inactive are those of the source. The rule behind the calls is not given here.

Tested on: CCRIS mutagenicity, Ames/micronucleus/aberration tests
Test: CCRIS mutagenicity studies
[1] = Test System: MOUSE LYMPHOMA, Strain/Indicator: L5178Y (TK+/TK-), Metabolic Activation: NONE, Method: SUSPENSION/PLATE
[2] = Test System: AMES SALMONELLA TYPHIMURIUM, Strain/Indicator: TA98, Metabolic Activation: NONE, Method: STANDARD PLATE
[3] = Test System: AMES SALMONELLA TYPHIMURIUM, Strain/Indicator: TA98, Metabolic Activation: RAT, LIVER, S-9, AROCLOR 1254, Method: STANDARD PLATE
[4] = Test System: AMES SALMONELLA TYPHIMURIUM, Strain/Indicator: TA100, Metabolic Activation: NONE, Method: STANDARD PLATE
[5] = Test System: AMES SALMONELLA TYPHIMURIUM, Strain/Indicator: TA100, Metabolic Activation: RAT, LIVER, S-9, AROCLOR 1254, Method: STANDARD PLATE
[6] = Test System: AMES SALMONELLA TYPHIMURIUM, Strain/Indicator: TA1535, Metabolic Activation: NONE, Method: STANDARD PLATE
[7] = Test System: AMES SALMONELLA TYPHIMURIUM, Strain/Indicator: TA1535, Metabolic Activation: RAT, LIVER, S-9, AROCLOR 1254, Method: STANDARD PLATE
[8] = Test System: AMES SALMONELLA TYPHIMURIUM, Strain/Indicator: TA1537, Metabolic Activation: NONE, Method: STANDARD PLATE
[9] = Test System: AMES SALMONELLA TYPHIMURIUM, Strain/Indicator: TA1537, Metabolic Activation: RAT, LIVER, S-9, AROCLOR 1254, Method: STANDARD PLATE
[10] = Test System: AMES SALMONELLA TYPHIMURIUM, Strain/Indicator: TA1538, Metabolic Activation: NONE, Method: STANDARD PLATE
[11] = Test System: AMES SALMONELLA TYPHIMURIUM, Strain/Indicator: TA1538, Metabolic Activation: RAT, LIVER, S-9, AROCLOR 1254, Method: STANDARD PLATE
[12] = Test System: MOUSE LYMPHOMA, Strain/Indicator: L5178Y (TK+/TK-), Metabolic Activation: RAT, LIVER, S-9, AROCLOR 1254, Method: SUSPENSION/PLATE

| Structure (SMILES) | mutagenic call [1] | mutagenic call [2] | mutagenic call [3] | mutagenic call [4] | mutagenic call [5] | mutagenic call [6] | mutagenic call [7] | mutagenic call [8] | mutagenic call [9] | mutagenic call [10] | mutagenic call [11] | also measured |
| --- | --- | --- | --- | --- | --- | --- | --- | --- | --- | --- | --- | --- |
| Nc1cc([N+](=O)[O-])ccc1O | active; positive | – | – | – | – | – | – | – | – | – | – | mutagenic call (End Point: IN VITRO CHROMOSOMAL ABERRATIONS, Test System: CHO CELLS, Metabolic Activation: NONE): active; positive; precipitation occurred at all concentrations; mutagenic call (End Point: IN VITRO CHROMOSOMAL ABERRATIONS, Test System: CHO CELLS, Metabolic Activation: RAT, LIVER, S-9, AROCLOR 1254): active; positive; precipitation occurred at both concentrations; mutagenic call (Test System: AMES SALMONELLA TYPHIMURIUM, Strain/Indicator: TA98, Metabolic Activation: HAMSTER, LIVER, S-9, AROCLOR 1254 (10%), Method: PREINCUBATION): active; positive; mutagenic call (Test System: AMES SALMONELLA TYPHIMURIUM, Strain/Indicator: TA98, Metabolic Activation: HAMSTER, LIVER, S-9, AROCLOR 1254, Method: PREINCUBATION): active; positive; mutagenic call (Test System: AMES SALMONELLA TYPHIMURIUM, Strain/Indicator: TA98, Metabolic Activation: NONE, Method: PREINCUBATION): inactive; negative; mutagenic call (Test System: AMES SALMONELLA TYPHIMURIUM, Strain/Indicator: TA98, Metabolic Activation: RAT, LIVER, S-9, AROCLOR 1254 (10%), Method: PREINCUBATION): inactive; negative; mutagenic call (Test System: AMES SALMONELLA TYPHIMURIUM, Strain/Indicator: TA98, Metabolic Activation: RAT, LIVER, S-9, AROCLOR 1254, Method: PREINCUBATION): inactive; negative; mutagenic call (Test System: AMES SALMONELLA TYPHIMURIUM, Strain/Indicator: TA100, Metabolic Activation: RAT, LIVER, S-9, AROCLOR 1254 (10%), Method: PREINCUBATION): inactive; negative; mutagenic call (Test System: AMES SALMONELLA TYPHIMURIUM, Strain/Indicator: TA100, Metabolic Activation: RAT, LIVER, S-9, AROCLOR 1254, Method: PREINCUBATION): inactive; negative; mutagenic call (Test System: AMES SALMONELLA TYPHIMURIUM, Strain/Indicator: TA1535, Metabolic Activation: HAMSTER, LIVER, S-9, AROCLOR 1254 (10%), Method: PREINCUBATION): inactive; negative; mutagenic call (Test System: AMES SALMONELLA TYPHIMURIUM, Strain/Indicator: TA1535, Metabolic Activation: HAMSTER, LIVER, S-9, AROCLOR 1254, Method: PREINCUBATION): inactive; negative; mutagenic call (Test System: AMES SALMONELLA TYPHIMURIUM, Strain/Indicator: TA1535, Metabolic Activation: RAT, LIVER, S-9, AROCLOR 1254 (10%), Method: PREINCUBATION): inactive; negative; mutagenic call (Test System: AMES SALMONELLA TYPHIMURIUM, Strain/Indicator: TA1535, Metabolic Activation: RAT, LIVER, S-9, AROCLOR 1254, Method: PREINCUBATION): inactive; negative; mutagenic call (Test System: AMES SALMONELLA TYPHIMURIUM, Strain/Indicator: TA1537, Metabolic Activation: HAMSTER, LIVER, S-9, AROCLOR 1254 (10%), Method: PREINCUBATION): inactive; negative; mutagenic call (Test System: AMES SALMONELLA TYPHIMURIUM, Strain/Indicator: TA1537, Metabolic Activation: HAMSTER, LIVER, S-9, AROCLOR 1254, Method: PREINCUBATION): inactive; negative; mutagenic call (Test System: AMES SALMONELLA TYPHIMURIUM, Strain/Indicator: TA1537, Metabolic Activation: RAT, LIVER, S-9, AROCLOR 1254 (10%), Method: PREINCUBATION): inactive; negative; mutagenic call (Test System: AMES SALMONELLA TYPHIMURIUM, Strain/Indicator: TA1537, Metabolic Activation: RAT, LIVER, S-9, AROCLOR 1254, Method: PREINCUBATION): inactive; negative |
| CC(C)C[C@H]1C(=O)N2CCC[C@H]2[C@]2(O)O[C@](NC(=O)[C@@H]3C[C@@H]4c5cccc6[nH]cc(c56)C[C@H]4N(C)C3)(C(C)C)C(=O)N12 | inactive; negative | inactive; negative | inactive; negative | inactive; negative | inactive; negative | inactive; negative | inactive; negative | inactive; negative | inactive; negative | inactive; negative | inactive; negative | mutagenic call [12]: inactive; negative; mutagenic call (Test System: UDS RAT HEPATOCYTES, Strain/Indicator: THY INCORP, Metabolic Activation: NONE): inactive; negative |
| COC(=O)[C@H]1O[C@@H]1c1ccccc1 | – | inactive; negative | inactive; negative | – | inactive; negative | inactive; negative | inactive; negative | inactive; negative | inactive; negative | inactive; negative | inactive; negative | – |
| O=C(O)Nc1ccccc1 | – | inactive; negative | inactive; negative | inactive; negative | inactive; negative | – | – | – | – | – | – | – |
| O=S1(=O)OC(c2cc(Br)c(O)c(Br)c2)(c2cc(Br)c(O)c(Br)c2)c2c(Br)c(Br)c(Br)c(Br)c21 | inactive; negative | inactive; negative | inactive; negative | inactive; negative | inactive; negative | inactive; negative | inactive; negative | inactive; negative | inactive; negative | inactive; negative | inactive; negative | mutagenic call [12]: inactive; negative |
| CC(C)Nc1nc(Cl)nc(NC(C)C)n1 | – | inactive; negative | inactive; negative | inactive; negative | inactive; negative | inactive; negative | inactive; negative | inactive; negative | inactive; negative | inactive; negative | inactive; negative | mutagenic call (Test System: AMES SALMONELLA TYPHIMURIUM, Strain/Indicator: TA97, Metabolic Activation: NONE, Method: STANDARD PLATE): inactive; negative; mutagenic call (Test System: AMES SALMONELLA TYPHIMURIUM, Strain/Indicator: TA97, Metabolic Activation: RAT, LIVER, S-9, AROCLOR 1254, Method: STANDARD PLATE): inactive; negative; mutagenic call (Test System: AMES SALMONELLA TYPHIMURIUM, Strain/Indicator: TA97A, Metabolic Activation: NONE, Method: STANDARD PLATE): inactive; negative; mutagenic call (Test System: AMES SALMONELLA TYPHIMURIUM, Strain/Indicator: TA97A, Metabolic Activation: RAT, LIVER, S-9, AROCLOR 1254, Method: STANDARD PLATE): inactive; negative; mutagenic call (Test System: AMES SALMONELLA TYPHIMURIUM, Strain/Indicator: TA102, Metabolic Activation: NONE, Method: STANDARD PLATE): inactive; negative; mutagenic call (Test System: AMES SALMONELLA TYPHIMURIUM, Strain/Indicator: TA102, Metabolic Activation: RAT, LIVER, S-9, AROCLOR 1254, Method: STANDARD PLATE): inactive; negative |
| CCCCN(CCCCO)N=O | – | – | – | – | – | – | – | – | – | – | – | mutagenic call (Test System: AMES SALMONELLA TYPHIMURIUM, Strain/Indicator: TA1535, Metabolic Activation: NONE, Method: PREINCUBATION): inactive; negative; mutagenic call (Test System: AMES SALMONELLA TYPHIMURIUM, Strain/Indicator: TA1535, Metabolic Activation: RAT, LIVER, HEPATOCYTES, Method: PREINCUBATION): inactive; negative; mutagenic call (Test System: AMES SALMONELLA TYPHIMURIUM, Strain/Indicator: TA1535, Metabolic Activation: RAT, LIVER, S-9, AROCLOR, Method: PREINCUBATION): active; positive; mutagenic call (Test System: AMES SALMONELLA TYPHIMURIUM, Strain/Indicator: TA1535, Metabolic Activation: RAT, LIVER, S-9, KC500 OR PHENOBARBITAL, Method: LIQUID SUSPENSION): active; positive; mutagenic call (Test System: AMES SALMONELLA TYPHIMURIUM, Strain/Indicator: TA1535, Metabolic Activation: RAT, LIVER, S-9, SODIUM PHENOBARBITONE, Method: PREINCUBATION): active; positive; mutagenic call (Test System: AMES SALMONELLA TYPHIMURIUM, Strain/Indicator: TA1535, Metabolic Activation: RAT, LIVER, S-9, Method: PREINCUBATION): inactive; negative |
